Source: ChEMBL document CHEMBL5030514, “Discovery of Anti-TNBC Agents Targeting PTP1B: Total Synthesis, Structure-Activity Relationship, In Vitro and In Vivo Investigations of Jamunones” (J Med Chem, 2021)
Calls of active or inactive are those of the source. No cut-off for these calls is given here.

Key:
MDA-MB-231 [1] = assay: Induction of mitochondrial apoptosis in human MDA-MB-231 cells assessed as total apoptotic cells by fluorescein isothiocyanate -annexin V/PI double staining based flow cytometric analysis (reference value: 3.5%); assay type: functional
MDA-MB-231 [2] = assay: Induction of apoptosis in human MDA-MB-231 cells assessed as increase in Bax protein expression at 0.56 to 5 uM measured after 24 hrs by Western blot analysis; assay type: functional, cell-based; conditions: dose 0.56-5 µM
MDA-MB-231 [3] = assay: Effect on Akt expression in human MDA-MB-231 cells by Western blot analysis; assay type: functional, cell-based
MCF7 [4] = assay: Cell cycle arrest in human MCF-7 cells assessed as downregulation of cyclin E1 expression by Western blot analysis; assay type: functional, cell-based
MCF7 [5] = assay: Induction of mitochondrial apoptosis in human MCF-7 cells assessed as membrane blebbing by Hoechst 33258 staining based fluorescence microscopic assay; assay type: functional, cell-based
MCF7 [6] = assay: Induction of mitochondrial apoptosis in human MCF-7 cells assessed as decrease in mitochondrial membrane potential levels at 5 uM measured after 24 hrs by flow cytometry; assay type: functional; parameters: scale not given: the % may be the effect or the level left
MDA-MB-231 [7] = assay: Cell cycle arrest in human MDA-MB-231 cells assessed as accumulation of cells at G2/M phase at 5 uM measured after 24 hrs by propidium iodide staining based flow cytometry (reference value: 27.5%); assay type: functional
[8] = Selective index, ratio of IC50 for HUVEC cells to IC50 of MCF-7 cells; assay type: toxicity; conditions: human, HUVEC cells versus MCF-7 cells; read-out: Selectivity Index
MCF7 [9] = assay: Cytotoxicity against human MCF-7 cells measured by MTT assay; assay type: functional, cell-based
MDA-MB-231 [10] = assay: Inhibition of PI3K in human MDA-MB-231 cells assessed as Akt phosphorylation by Western blot analysis; assay type: cell-based
MDA-MB-231 [11] = assay: Induction of mitochondrial apoptosis in human MDA-MB-231 cells assessed as viable cells at 5 uM measured after 24 hrs by FITC -annexin V/PI double staining based flow cytometric analysis (Rvb =94.3%); assay type: functional; conditions: read-out: Activity
MCF7 [12] = assay: Effect on Akt expression in human MCF7 cells by Western blot analysis; assay type: functional, cell-based
MCF7 [13] = assay: Inhibition of PI3K p85 phosphorylation in human MCF7 cells by Western blot analysis; assay type: cell-based
[14] = target: T1, Tyrosine-protein phosphatase non-receptor type 1 (Homo sapiens, UniProt P18031); assay: Inhibition of PTP1B (unknown origin)
T1 sequence (P18031 whole entry): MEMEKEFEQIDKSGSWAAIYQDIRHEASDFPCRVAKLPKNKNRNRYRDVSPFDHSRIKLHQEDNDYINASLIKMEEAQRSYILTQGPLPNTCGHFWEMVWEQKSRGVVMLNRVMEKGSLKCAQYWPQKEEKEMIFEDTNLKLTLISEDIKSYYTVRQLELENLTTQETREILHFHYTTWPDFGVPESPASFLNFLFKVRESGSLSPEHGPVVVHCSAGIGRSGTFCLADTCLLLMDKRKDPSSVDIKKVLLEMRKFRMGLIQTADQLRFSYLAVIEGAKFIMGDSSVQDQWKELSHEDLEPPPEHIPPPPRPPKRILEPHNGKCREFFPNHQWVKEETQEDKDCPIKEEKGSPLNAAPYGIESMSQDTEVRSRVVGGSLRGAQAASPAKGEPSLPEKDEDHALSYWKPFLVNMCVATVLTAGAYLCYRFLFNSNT

MDA-MB-231 [15] = assay: Induction of mitochondrial apoptosis in human MDA-MB-231 cells assessed as early apoptotic cells at 5 uM measured after 24 hrs by FITC -annexin V/PI double staining based flow cytometric analysis (reference value: 2.2%); assay type: functional
MDA-MB-231 [16] = assay: Antitumour activity against human MDA-MB-231 cells xenografted in BALB/c nude mouse assessed as upregulation of Bax level by western blot; assay type: functional, cell-based
MCF7 [17] = assay: Cell cycle arrest in human MCF-7 cells assessed as accumulation of cells at G0/G1 phase at 15 uM measured after 24 hrs by propidium iodide staining based flow cytometry (reference value: 51.7%); assay type: functional
MCF7 [18] = assay: Cell cycle arrest in human MCF-7 cells assessed as downregulation of CDK6 expression by Western blot analysis; assay type: functional, cell-based
MDA-MB-231 [19] = assay: Induction of mitochondrial apoptosis in human MDA-MB-231 cells assessed as membrane blebbing by Hoechst 33258 staining based fluorescence microscopic assay; assay type: functional, cell-based
[20] = Selective index, ratio of IC50 for HUVEC cells to IC50 of MDA-MB-231 cells; assay type: toxicity; conditions: human, HUVEC cells versus MDA-MB-231 cells; read-out: Selectivity Index
MDA-MB-231 [21] = assay: Antitumour activity against human MDA-MB-231 cells xenografted in BALB/c nude mouse assessed as tumour growth inhibition at 30 mg/kg, ip administered once for every other day for 20 days relative to control; assay type: functional; conditions: MDA-MB-231, ip, 480 h, time 20 day, read-out: TGI
MDA-MB-231 [22] = assay: Effect on PI3K p85 expression in human MDA-MB-231 cells by Western blot analysis; assay type: functional, cell-based
MCF7 [23] = assay: Cell cycle arrest in human MCF7 cells assessed as accumulation of cells at G2/M phase at 15 uM measured after 24 hrs by propidium iodide staining based flow cytometry (reference value: 31%); assay type: functional
MCF7 [24] = assay: Induction of apoptosis in human MCF-7 cells assessed as upregulation of cleaved poly(ADP-ribose) polymerase level at 1.67 to 15 uM measured after 24 hrs by Western blot analysis; assay type: functional, cell-based; conditions: dose 1.67-15 µM
MDA-MB-231 [25] = assay: Cell cycle arrest in human MDA-MB-231 cells assessed as downregulation of CDK6 expression by Western blot analysis; assay type: functional, cell-based
MCF7 [26] = assay: Induction of mitochondrial apoptosis in human MCF7 cells assessed as early apoptotic cells at 15 uM measured after 24 hrs by FITC -annexin V/PI double staining based flow cytometric analysis (reference value: 2.4%); assay type: functional
MCF7 [27] = assay: Cell cycle arrest in human MCF-7 cells assessed as downregulation of cyclin D1 expression by Western blot analysis; assay type: functional, cell-based
MCF7 [28] = assay: Cell cycle arrest in human MCF-7 cells assessed as downregulation of CDK2 expression by Western blot analysis; assay type: functional, cell-based
MDA-MB-231 [29] = assay: Antitumour activity against human MDA-MB-231 cells xenografted in BALB/c nude mouse assessed as downregulation of cyclin E1 level at 15 to 30 mg/kg, ip administered once for every other day for 20 days by Western blot analysis; assay type: functional, organism-based; conditions: dose 15-30 mg/kg, time 20.0 day
MDA-MB-231 [30] = assay: Antiproliferative activity against human MDA-MB-231 cells assessed as effect on cell viability at 0.56-5 uM for 24 hrs measured by MTT assay; assay type: functional, cell-based
MDA-MB-231 [31] = assay: Inhibition of PI3K p85 phosphorylation in human MDA-MB-231 cells by Western blot analysis; assay type: cell-based
MCF7 [32] = assay: Cell cycle arrest in human MCF-7 cells assessed as downregulation of cyclin D3 expression by Western blot analysis; assay type: functional, cell-based
MDA-MB-231 [33] = assay: Induction of apoptosis in human MDA-MB-231 cells assessed as increase in production of cleaved caspase-9 at 0.56 to 5 uM measured after 24 hrs by Western blot analysis; assay type: functional, cell-based; conditions: dose 0.56-5 µM
MCF7 [34] = assay: Antiproliferative activity against human MCF-7 cells assessed as effect on cell viability at 1.67-15 uM for 24 hrs measured by MTT assay; assay type: functional, cell-based
MDA-MB-231 [35] = assay: Induction of mitochondrial apoptosis in human MDA-MB-231 cells assessed as accumulation of reactive oxygen species by flow cytometry; assay type: functional, cell-based

SMILES: CCCC/C=C/CCCCCCCCCC1(O)CC(=O)c2c(O)c(C)c(O)c(C)c2O1 (stereo not given)
- Activity (MDA-MB-231 [1]): 11.8%
- Activity (MDA-MB-231 [2]): Dose-Dependent Effect
- Activity (MDA-MB-231 [3]): inactive
- Activity (MCF7 [4]): Dose-Dependent Effect
- Activity (MCF7 [5]): Active
- Activity (MCF7 [6]): 68.7%
- Activity (MDA-MB-231 [7]): 18.5%
- selectivity ratio [8]: 2.64
- IC50 (MCF7 [9]): 17.5 µM
- inhibition (MDA-MB-231 [10]): Dose-Dependent Effect
- viability at 5 µM (MDA-MB-231 [11]): 82%
- Activity (MCF7 [12]): inactive
- inhibition (MCF7 [13]): Dose-Dependent Effect
- IC50 [14]: 1.8 µM
- Activity (MDA-MB-231 [15]): 6.1%
- Activity (MDA-MB-231 [16]): Active
- Activity (MCF7 [17]): 66.8%
- Activity (MCF7 [18]): Dose-Dependent Effect
- Activity (MDA-MB-231 [19]): Active
- selectivity ratio [20]: 6.78
- inhibition in vivo at 30 mg/kg (MDA-MB-231 [21]): 79.3%
- Activity (MDA-MB-231 [22]): inactive
- Activity (MCF7 [23]): 22.7%
- Activity (MCF7 [24]): Active
- Activity (MDA-MB-231 [25]): Dose-Dependent Effect
- Activity (MCF7 [26]): 7.8%
- Activity (MCF7 [27]): Dose-Dependent Effect
- Activity (MCF7 [28]): Dose-Dependent Effect
- Activity (MDA-MB-231 [29]): Active
- Activity (MDA-MB-231 [30]): inactive
- inhibition (MDA-MB-231 [31]): Dose-Dependent Effect
- Activity (MCF7 [32]): Dose-Dependent Effect
- Activity (MDA-MB-231 [33]): Dose-Dependent Effect
- Activity (MCF7 [34]): inactive
- Activity (MDA-MB-231 [35]): Active
